Assay results taken from US9790233B2, “Compositions and methods of modulating 15-PGDH activity” (CASE WESTERN RESERVE UNIVERSITY, priority 2012, dated 2017).
Read-outs that look alike come from different tables or passages of the source.

Experiments:
[1] = system: 15-PGDH luciferase fusion construct in LS174T reporter cell line; test: 15-PGDH-luciferase fusion gene reporter induction, LS174T cells; assay type: cell-based; conditions: Homo sapiens
A549 cells = test: PGE2 levels in the medium of IL1-beta stimulated A549 cells;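 also: PGE2 in the collected culture medium quantified by enzyme immunoassay (ELISA), with data drawn from three independent experiments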; assay type: cell-based; conditions: 100 nM drug; FIG. 44
[2] = system: 15-PGDH luciferase fusion construct in V9m reporter cell line; test: 15-PGDH-luciferase fusion gene reporter induction, V9m cells; assay type: cell-based; conditions: read-out: V9M reporter activity ([…]), […]
[3] = system: 15-PGDH luciferase fusion construct in Vaco503 reporter cell line; test: 15-PGDH-luciferase fusion gene reporter induction, V503 cells; assay type: cell-based; conditions: read-out: V503 reporter activity ([…]), […]
15-PGDH protein = 15-PGDH protein (Homo sapiens (Human), UniProt P15428); test: Inhibition of enzymatic activity of recombinant 15-PGDH in vitro (tritium transfer from PGE2 or NADH fluorescence); assay type: biochemical; conditions: recombinant 15-PGDH in vitro; Table 2, cells printed in uM; read-out: Enzyme inhibition (IC50)
Chain of 15-PGDH protein (P15428 whole entry): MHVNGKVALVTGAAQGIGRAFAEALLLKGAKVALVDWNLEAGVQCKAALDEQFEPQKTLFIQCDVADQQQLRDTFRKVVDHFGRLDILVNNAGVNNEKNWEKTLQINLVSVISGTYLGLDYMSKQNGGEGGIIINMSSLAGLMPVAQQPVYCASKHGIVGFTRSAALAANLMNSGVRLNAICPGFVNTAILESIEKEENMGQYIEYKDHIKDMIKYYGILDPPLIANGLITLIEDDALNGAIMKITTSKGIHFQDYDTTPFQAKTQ

[4] = read-out: LS174T reporter activity ([…]), […], % increased luciferase activity over basal level, read-out: LS174T reporter activity (2.5 uM)
[5] = read-out: LS174T reporter activity ([…]), […], % increased luciferase activity over basal level, read-out: LS174T reporter activity (7.5 uM)
[6] = % increased luciferase activity over basal level, 100 = doubling, read-out: V9M reporter activity (2.5 uM)
[7] = % increased luciferase activity over basal level, 100 = doubling, read-out: V9M reporter activity (7.5 uM)
[8] = % increased luciferase activity over basal level, read-out: V503 reporter activity (2.5 uM)
[9] = % increased luciferase activity over basal level, read-out: V503 reporter activity (7.5 uM)
[10] = read-out: LS174T reporter activity ([…]), […], % induction over basal level, Table 17, read-out: LS174T reporter activity (2.5 μM)
[11] = read-out: lS174T reporter activity ([…]), […], % induction over basal level, Table 17, read-out: lS174T reporter activity (7.5 μM)
[12] = % induction of luciferase activity over basal level, Table 17, read-out: V9M reporter activity (2.5 μM)
[13] = % induction over basal level, Table 17, read-out: V9M reporter activity (7.5 μM)
[14] = % induction over basal level, Table 17, read-out: V503 reporter activity (2.5 μM)
[15] = % induction over basal level, Table 17, read-out: V503 reporter activity (7.5 μM)

| Structure (SMILES) | activation at […] [1, 4] [%] | activation at […] [1, 5] [%] | rank of PGE2 level in the medium (A549 cells) | activation at […] [2, 6] [%] | activation at […] [2, 7] [%] | activation at […] [3, 8] [%] | activation at […] [3, 9] [%] | IC50 (15-PGDH protein) [µM] | activation at […] [1, 10] [%] | activation at […] [1, 11] [%] | activation at […] [2, 12] [%] | activation at […] [2, 13] [%] | activation at […] [3, 14] [%] | activation at […] [3, 15] [%] |
| --- | --- | --- | --- | --- | --- | --- | --- | --- | --- | --- | --- | --- | --- | --- |
| CCCC[S+]([O-])c1sc2nc(-c3cccs3)nc(-c3ccccc3)c2c1N (centres unmarked) [SW208067, 6-(butylsulfinyl)-4-phenyl-2-(thiophen-2-yl)thieno[2,3-d]pyrimidin-5-amine] | 94.3 | 79.6 | highest levels of PGE2 | 122 | 108 | 94.3 | 79.6 |  |  |  |  |  |  |  |
| CCCC[S+]([O-])c1ncccc1[N+](=O)[O-] (centres unmarked) [SW208069, 2-(butylsulfinyl)-3-nitropyridine] |  |  |  |  |  |  |  | > 7.5 |  |  |  |  |  |  |
| COc1ccc(OC)c(N(CC(=O)Nc2cccc(Br)c2)S(=O)(=O)c2ccc(OC)c(OC)c2)c1 [compound 939417] |  |  |  |  |  |  |  |  | 6.5 | -1.64 | -11.2 | -9.81 | 12.6 | 16.2 |
| COc1ccc(OC)c(N(CC(=O)NC(C)c2ccccc2)S(=O)(=O)c2ccc(OC)c(OC)c2)c1 (centres unmarked) [compound 967134] |  |  |  |  |  |  |  |  | 5.11 | 5.73 | -10.1 | -2.64 | 18.4 | 36.1 |
| NC(=O)c1sc2nc(-c3cccs3)cc(-c3ccc(F)cc3)c2c1N [compound 980653] | 5.76 | 11 |  | 8.83 | 12 | -10.5 | -15.2 |  |  |  |  |  |  |  |
| COc1ccc(OC)c(NC(=O)CN(c2ccccc2)S(=O)(=O)c2cc(Br)ccc2OC)c1 [compound 1002654] |  |  |  |  |  |  |  |  | 5.51 | -1.24 | -2.58 | -3.96 | 0.78 | 19.2 |
| COc1ccc(OC)c(N(CC(=O)Nc2ccc(I)cc2C)S(=O)(=O)c2ccccc2)c1 [compound 1003012] |  |  |  |  |  |  |  |  | 5.54 | 19.8 | -10.4 | -0.9 | 34.4 | 58.5 |
| CCOC(=O)c1ccc(NC(=O)CN(c2cc(OC)ccc2OC)S(=O)(=O)c2ccc(OC)c(OC)c2)cc1 [compound 1003132] |  |  |  |  |  |  |  |  | 5.16 | 1.73 | -5.6 | -0.21 | 15.4 | 16.1 |
| COc1ccc(OC)c(N(CC(=O)Nc2ccccc2C(=O)NC(C)C)S(=O)(=O)c2ccc(OC)c(OC)c2)c1 [compound 1003378] |  |  |  |  |  |  |  |  | 7.3 | 1.27 | -4.42 | -3.27 | 7.23 | 16.7 |
| CCc1cccc(CC)c1NC(=O)CN(c1cc(OC)ccc1OC)S(=O)(=O)c1ccc(OC)c(OC)c1 [compound 1003429] |  |  |  |  |  |  |  |  | 8.82 | -6.88 | 12.6 | 4.17 | -7.46 | -19.2 |
| COc1ccc(OC)c(N(CC(=O)Nc2ccc(Br)cc2F)S(=O)(=O)c2ccc(C)cc2)c1 [compound 1004292] |  |  |  |  |  |  |  |  | 20.3 | 0.14 | 0.88 | -0.21 | 23.5 | 21.2 |
